Results as given in PubChem BioAssay (NCI).
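48-hour exposure; five concentrations; linearly interpolated endpoints. TGI marks complete inhibition of growth.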

Assays:
Experiment in all cases: growth of human tumour cells (NCI), 48 h
[1] = test system: XF 498 CNS
[2] = test system: SW-620 colon
[3] = test system: 786-0 renal
[4] = test system: UO-31 renal
[5] = test system: OVCAR-5 ovarian
[6] = test system: NCI-H23 lung
[7] = test system: KM12 colon
[8] = test system: NCI-H522 lung
[9] = test system: HCT-116 colon
[10] = test system: HOP-62 NSCLC
[11] = test system: SNB-19 CNS
[12] = test system: DMS 273 small cell lung
[13] = test system: SNB-75 CNS
[14] = test system: CCRF-CEM leukemia
[15] = test system: SK-MEL-2 melanoma
[16] = test system: SF-268 CNS
[17] = test system: CAKI-1 renal
[18] = test system: COLO 205 colon
[19] = test system: HL-60(TB) leukemia
[20] = test system: SF-295 CNS
[21] = test system: RXF 393 renal
[22] = test system: OVCAR-3 ovarian
[23] = test system: MOLT-4 leukemia
[24] = test system: MALME-3M melanoma
[25] = test system: SK-MEL-28 melanoma
[26] = test system: OVCAR-8 ovarian
[27] = test system: SK-OV-3 ovarian
[28] = test system: SF-539 CNS
[29] = test system: KM20L2 colon
[30] = test system: A549 NSCLC
[31] = test system: M14 melanoma
[32] = test system: OVCAR-4 ovarian
[33] = test system: HOP-92 NSCLC
[34] = test system: DMS 114 small cell lung
[35] = test system: HCT-15 colon
[36] = test system: TK-10 renal
[37] = test system: LXFL 529 NSCLC
[38] = test system: RPMI-8226 leukemia
[39] = test system: DLD-1 colon
[40] = test system: LOX IMVI melanoma
[41] = test system: U251 CNS
[42] = test system: SNB-78 CNS
[43] = test system: NCI-H460 lung
[44] = test system: K-562 leukemia
[45] = test system: EKVX NSCLC
[46] = test system: A498 renal
[47] = test system: HCC-2998 colon
[48] = test system: ACHN renal
[49] = test system: SR leukemia
[50] = test system: M19-MEL melanoma
[51] = test system: SK-MEL-5 melanoma
[52] = test system: UACC-62 melanoma
[53] = test system: HT29 colon
[54] = test system: SN12C renal
[55] = test system: IGROV1 ovarian
[56] = test system: NCI-H226 lung
[57] = test system: HOP-18 NSCLC
[58] = test system: UACC-257 melanoma

COc1ccc(C(=O)c2c(C(C(=O)c3ccc(OC)cc3)C(=O)c3ccc(OC)cc3)n(C(=O)c3ccc(OC)cc3)c3ccccc23)cc1
TGI [1]: > 100 µM
TGI [2]: > 100 µM
TGI [3]: > 100 µM
TGI [4]: > 100 µM
TGI [5]: > 100 µM
TGI [6]: > 100 µM
TGI [7]: > 100 µM
TGI [8]: > 100 µM
TGI [9]: > 100 µM
TGI [10]: > 100 µM
TGI [11]: > 100 µM
TGI [12]: > 100 µM
TGI [13]: > 100 µM
TGI [14]: > 100 µM
TGI [15]: > 100 µM
TGI [16]: > 100 µM
TGI [17]: > 100 µM
TGI [18]: > 100 µM
TGI [19]: > 100 µM
TGI [20]: > 100 µM
TGI [21]: > 100 µM
TGI [22]: > 100 µM
TGI [23]: > 100 µM
TGI [24]: > 100 µM
TGI [25]: > 100 µM
TGI [26]: > 100 µM
TGI [27]: > 100 µM
TGI [28]: > 100 µM
TGI [29]: > 100 µM
TGI [30]: > 100 µM
TGI [31]: > 100 µM
TGI [32]: > 100 µM
TGI [33]: > 100 µM
TGI [34]: > 100 µM
TGI [35]: > 100 µM
TGI [36]: > 100 µM
TGI [37]: > 100 µM
TGI [38]: > 100 µM
TGI [39]: > 100 µM
TGI [40]: > 100 µM
TGI [41]: > 100 µM
TGI [42]: > 100 µM
TGI [43]: > 100 µM
TGI [44]: > 100 µM
TGI [45]: > 100 µM
TGI [46]: > 100 µM
TGI [47]: > 100 µM
TGI [48]: > 100 µM
TGI [49]: > 100 µM
TGI [50]: > 100 µM
TGI [51]: > 100 µM
TGI [52]: > 100 µM
TGI [53]: > 100 µM
TGI [54]: > 100 µM
TGI [55]: > 100 µM
TGI [56]: > 100 µM

C[O+]=c1cccc2ssnc1-2
TGI [57]: > 100 µM
TGI [1]: 43.1 µM
TGI [2]: 70.6 µM
TGI [3]: > 100 µM
TGI [4]: 98 µM
TGI [5]: > 100 µM
TGI [6]: > 100 µM
TGI [7]: > 100 µM
TGI [8]: > 10 µM
TGI [9]: > 100 µM
TGI [10]: > 100 µM
TGI [11]: > 100 µM
TGI [12]: > 100 µM
TGI [13]: > 100 µM
TGI [14]: > 10 µM
TGI [15]: > 100 µM
TGI [16]: > 100 µM
TGI [17]: > 100 µM
TGI [18]: > 100 µM
TGI [19]: 69.6 µM
TGI [20]: > 100 µM
TGI [21]: > 100 µM
TGI [22]: > 100 µM
TGI [23]: 96.1 µM
TGI [24]: > 100 µM
TGI [25]: > 100 µM
TGI [26]: 74.1 µM
TGI [27]: > 100 µM
TGI [28]: > 100 µM
TGI [29]: > 100 µM
TGI [30]: > 100 µM
TGI [31]: > 100 µM
TGI [32]: > 100 µM
TGI [35]: > 100 µM
TGI [36]: > 100 µM
TGI [37]: > 100 µM
TGI [58]: 88.5 µM
TGI [39]: > 100 µM
TGI [40]: > 100 µM
TGI [41]: > 10 µM
TGI [42]: > 100 µM
TGI [43]: > 100 µM
TGI [44]: 91.6 µM
TGI [45]: > 100 µM
TGI [46]: > 100 µM
TGI [47]: > 100 µM
TGI [48]: > 100 µM
TGI [49]: 64.8 µM
TGI [50]: 69.3 µM
TGI [51]: 58.7 µM
TGI [52]: 58.8 µM
TGI [53]: > 100 µM
TGI [54]: > 100 µM
TGI [55]: > 100 µM
TGI [56]: > 100 µM

OC[C@@H]1CC#C/C=C\C#CC[C@@H]1CO
TGI [57]: > 100 µM
TGI [1]: 6.99 µM
TGI [3]: > 100 µM
TGI [4]: > 100 µM
TGI [5]: > 100 µM
TGI [6]: > 100 µM
TGI [7]: > 100 µM
TGI [9]: > 100 µM
TGI [10]: > 100 µM
TGI [11]: > 100 µM
TGI [15]: > 100 µM
TGI [17]: > 100 µM
TGI [18]: > 100 µM
TGI [19]: > 100 µM
TGI [20]: > 100 µM
TGI [21]: > 100 µM
TGI [22]: > 100 µM
TGI [23]: > 100 µM
TGI [24]: > 100 µM
TGI [25]: > 100 µM
TGI [26]: > 100 µM
TGI [27]: > 100 µM
TGI [28]: > 100 µM
TGI [31]: > 100 µM
TGI [32]: > 100 µM
TGI [34]: > 100 µM
TGI [35]: > 100 µM
TGI [36]: > 100 µM
TGI [38]: > 100 µM
TGI [39]: > 100 µM
TGI [41]: > 100 µM
TGI [42]: > 100 µM
TGI [44]: > 100 µM
TGI [45]: > 100 µM
TGI [47]: > 100 µM
TGI [50]: > 100 µM
TGI [51]: > 100 µM
TGI [53]: > 100 µM
TGI [55]: > 100 µM
